{
  "source": "paper PMC5762315",
  "about": "“Inhibition of polo-like kinase 4 (PLK4): a new therapeutic option for rhabdoid tumors and pediatric medulloblastoma” (Oncotarget, 2017)",
  "assay_in_all_cases": "Adapta Universal Kinase Assay, panel of 486 biochemical kinase assays",
  "set-up_in_all_cases": "% Inhibition Average: concentration or dose not given beside the values",
  "key": {"[1]": {"target": "T1, various kinases (Homo sapiens, UniProt Q9NRA0)", "T1 sequence (Q9NRA0 1-654)": "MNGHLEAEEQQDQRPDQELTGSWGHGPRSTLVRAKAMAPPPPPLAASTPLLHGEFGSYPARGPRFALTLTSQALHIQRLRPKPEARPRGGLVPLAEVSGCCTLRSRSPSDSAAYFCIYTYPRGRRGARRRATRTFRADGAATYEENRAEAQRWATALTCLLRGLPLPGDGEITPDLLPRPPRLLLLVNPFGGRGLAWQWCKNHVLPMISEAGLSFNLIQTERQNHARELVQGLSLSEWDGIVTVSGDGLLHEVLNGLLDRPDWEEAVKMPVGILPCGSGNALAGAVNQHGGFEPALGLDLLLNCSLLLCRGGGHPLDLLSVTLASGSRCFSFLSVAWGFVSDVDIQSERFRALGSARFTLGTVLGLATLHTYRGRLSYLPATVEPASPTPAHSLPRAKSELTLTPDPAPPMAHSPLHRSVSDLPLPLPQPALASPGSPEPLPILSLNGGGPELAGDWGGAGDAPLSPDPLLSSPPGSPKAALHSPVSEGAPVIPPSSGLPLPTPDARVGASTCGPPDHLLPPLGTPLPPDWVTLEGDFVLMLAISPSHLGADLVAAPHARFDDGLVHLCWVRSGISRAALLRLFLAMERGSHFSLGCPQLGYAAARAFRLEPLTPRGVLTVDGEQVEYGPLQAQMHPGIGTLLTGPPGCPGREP", "settings": "kinase SPHK2; Adapta"}, "[2]": {"target": "various kinases (Homo sapiens, UniProt Q9BTU6)", "settings": "PI4K2A (PI4K2 alpha)"}, "[3]": {"target": "various kinases (Homo sapiens, UniProt O60285)", "sequence (O60285 whole entry)": "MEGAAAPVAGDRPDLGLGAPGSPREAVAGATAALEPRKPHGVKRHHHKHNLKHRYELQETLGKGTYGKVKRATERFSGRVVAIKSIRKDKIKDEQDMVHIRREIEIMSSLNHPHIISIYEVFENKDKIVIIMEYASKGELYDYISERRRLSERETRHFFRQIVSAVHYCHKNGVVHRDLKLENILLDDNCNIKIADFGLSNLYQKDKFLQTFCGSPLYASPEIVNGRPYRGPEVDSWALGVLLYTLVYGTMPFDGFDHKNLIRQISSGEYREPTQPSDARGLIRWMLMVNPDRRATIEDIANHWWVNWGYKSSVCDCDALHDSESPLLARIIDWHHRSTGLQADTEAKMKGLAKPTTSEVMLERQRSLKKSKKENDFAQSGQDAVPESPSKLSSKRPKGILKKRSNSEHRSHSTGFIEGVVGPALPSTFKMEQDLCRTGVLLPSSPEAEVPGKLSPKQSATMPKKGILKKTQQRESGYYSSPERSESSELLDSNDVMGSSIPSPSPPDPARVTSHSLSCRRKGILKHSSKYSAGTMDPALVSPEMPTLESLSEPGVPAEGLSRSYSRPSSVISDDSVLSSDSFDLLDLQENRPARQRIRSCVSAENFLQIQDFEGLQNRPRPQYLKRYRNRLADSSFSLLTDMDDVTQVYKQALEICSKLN", "settings": "NUAK1 (ARK5)"}, "[4]": {"target": "various kinases (Homo sapiens, UniProt Q9NYA1)", "sequence (Q9NYA1 whole entry)": "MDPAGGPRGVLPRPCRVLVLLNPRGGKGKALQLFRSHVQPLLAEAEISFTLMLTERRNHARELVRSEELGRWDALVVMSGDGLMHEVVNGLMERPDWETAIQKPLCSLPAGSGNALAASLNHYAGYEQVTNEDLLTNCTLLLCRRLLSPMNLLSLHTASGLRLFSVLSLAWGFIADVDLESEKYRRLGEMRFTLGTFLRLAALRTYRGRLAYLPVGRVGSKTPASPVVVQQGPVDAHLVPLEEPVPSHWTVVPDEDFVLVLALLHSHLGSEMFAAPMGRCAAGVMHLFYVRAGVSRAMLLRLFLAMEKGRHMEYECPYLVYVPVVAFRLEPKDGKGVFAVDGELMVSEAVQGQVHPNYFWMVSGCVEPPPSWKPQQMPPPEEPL", "settings": "kinase SPHK1; Adapta"}, "[5]": {"target": "various kinases (Homo sapiens, UniProt Q5S007, R1441C)", "settings": "LRRK2 R1441C"}, "[6]": {"target": "various kinases (Homo sapiens, UniProt P11802)", "sequence (P11802 whole entry)": "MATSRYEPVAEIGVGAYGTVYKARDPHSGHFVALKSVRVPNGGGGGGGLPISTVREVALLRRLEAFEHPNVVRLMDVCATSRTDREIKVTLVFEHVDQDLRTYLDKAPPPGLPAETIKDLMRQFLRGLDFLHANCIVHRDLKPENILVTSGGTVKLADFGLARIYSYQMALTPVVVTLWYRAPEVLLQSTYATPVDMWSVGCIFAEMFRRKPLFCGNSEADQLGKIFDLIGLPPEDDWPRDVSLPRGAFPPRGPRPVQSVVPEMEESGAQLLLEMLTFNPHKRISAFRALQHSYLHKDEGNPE"}, "[7]": {"target": "various kinases (Homo sapiens, UniProt P42338)", "sequence (P42338 whole entry)": "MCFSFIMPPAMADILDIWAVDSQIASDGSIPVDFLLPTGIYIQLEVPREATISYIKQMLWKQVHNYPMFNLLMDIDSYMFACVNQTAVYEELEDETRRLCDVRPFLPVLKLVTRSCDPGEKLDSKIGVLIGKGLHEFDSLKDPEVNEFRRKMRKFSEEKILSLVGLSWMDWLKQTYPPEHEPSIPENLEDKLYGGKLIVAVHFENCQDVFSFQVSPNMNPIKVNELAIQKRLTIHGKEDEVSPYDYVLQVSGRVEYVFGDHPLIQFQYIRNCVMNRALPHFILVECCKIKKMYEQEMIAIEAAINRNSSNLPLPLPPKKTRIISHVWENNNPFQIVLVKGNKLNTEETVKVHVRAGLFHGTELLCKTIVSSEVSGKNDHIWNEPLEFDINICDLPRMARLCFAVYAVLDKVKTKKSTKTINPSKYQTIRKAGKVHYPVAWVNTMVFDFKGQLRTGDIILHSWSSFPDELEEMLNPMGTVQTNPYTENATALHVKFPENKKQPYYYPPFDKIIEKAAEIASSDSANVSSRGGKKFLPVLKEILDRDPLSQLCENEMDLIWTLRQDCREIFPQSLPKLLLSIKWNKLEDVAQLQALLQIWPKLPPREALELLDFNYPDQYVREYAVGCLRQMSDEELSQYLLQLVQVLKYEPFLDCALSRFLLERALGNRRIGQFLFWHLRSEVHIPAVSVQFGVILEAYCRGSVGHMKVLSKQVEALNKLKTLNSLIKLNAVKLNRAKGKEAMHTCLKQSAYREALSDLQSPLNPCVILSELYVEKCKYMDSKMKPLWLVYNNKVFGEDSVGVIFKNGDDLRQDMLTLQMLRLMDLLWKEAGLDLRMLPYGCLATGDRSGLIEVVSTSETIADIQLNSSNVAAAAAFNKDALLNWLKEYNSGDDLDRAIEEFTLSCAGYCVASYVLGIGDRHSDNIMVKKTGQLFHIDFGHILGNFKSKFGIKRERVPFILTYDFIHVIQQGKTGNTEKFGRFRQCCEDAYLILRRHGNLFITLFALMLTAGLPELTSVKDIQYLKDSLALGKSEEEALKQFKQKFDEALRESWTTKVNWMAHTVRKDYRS"}, "[8]": {"target": "various kinases (Homo sapiens, UniProt P53355)", "settings": "DAPK1"}, "[9]": {"target": "various kinases (Homo sapiens, UniProt Q5S007, I2020T)", "settings": "LRRK2 I2020T"}, "[10]": {"target": "various kinases (Homo sapiens, UniProt Q5S007, G2019S)"}, "[11]": {"target": "various kinases (Homo sapiens, UniProt Q8TCG2)", "settings": "PI4K2B (PI4K2 beta)"}, "[12]": {"target": "various kinases (Homo sapiens, UniProt P48426)", "settings": "PIP4K2A"}, "[13]": {"target": "various kinases (Homo sapiens, UniProt O60331)", "sequence (O60331 whole entry)": "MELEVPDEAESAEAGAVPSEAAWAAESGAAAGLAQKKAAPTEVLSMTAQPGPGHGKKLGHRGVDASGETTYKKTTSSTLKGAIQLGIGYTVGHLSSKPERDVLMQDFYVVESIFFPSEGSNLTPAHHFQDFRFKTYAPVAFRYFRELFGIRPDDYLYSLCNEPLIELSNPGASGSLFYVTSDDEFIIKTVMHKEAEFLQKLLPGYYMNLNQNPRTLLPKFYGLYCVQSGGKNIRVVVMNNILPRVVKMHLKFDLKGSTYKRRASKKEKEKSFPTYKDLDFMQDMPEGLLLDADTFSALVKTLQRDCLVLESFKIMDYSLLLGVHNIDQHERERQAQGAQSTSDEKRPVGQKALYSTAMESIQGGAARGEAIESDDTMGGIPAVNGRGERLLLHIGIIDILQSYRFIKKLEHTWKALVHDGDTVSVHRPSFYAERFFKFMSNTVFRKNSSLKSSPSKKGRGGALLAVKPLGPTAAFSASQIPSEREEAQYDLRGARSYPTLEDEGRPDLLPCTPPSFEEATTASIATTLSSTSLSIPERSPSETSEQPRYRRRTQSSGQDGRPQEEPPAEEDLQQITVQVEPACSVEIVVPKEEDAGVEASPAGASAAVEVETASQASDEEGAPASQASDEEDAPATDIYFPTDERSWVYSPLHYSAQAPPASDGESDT", "settings": "kinase PIP5K1C; Adapta"}, "[14]": {"target": "various kinases (Homo sapiens, UniProt Q5S007)"}, "[15]": {"target": "various kinases (Homo sapiens, UniProt Q14012)", "settings": "CAMK1 (CaMK1)"}, "[16]": {"target": "various kinases (Homo sapiens, UniProt Q9UBF8)", "settings": "PI4KB (PI4K beta)"}, "[17]": {"target": "various kinases (Homo sapiens, UniProt O00750)", "settings": "PIK3C2B (PI3K-C2 beta)"}, "[18]": {"target": "various kinases (Homo sapiens, UniProt P50613)", "sequence (P50613 whole entry)": "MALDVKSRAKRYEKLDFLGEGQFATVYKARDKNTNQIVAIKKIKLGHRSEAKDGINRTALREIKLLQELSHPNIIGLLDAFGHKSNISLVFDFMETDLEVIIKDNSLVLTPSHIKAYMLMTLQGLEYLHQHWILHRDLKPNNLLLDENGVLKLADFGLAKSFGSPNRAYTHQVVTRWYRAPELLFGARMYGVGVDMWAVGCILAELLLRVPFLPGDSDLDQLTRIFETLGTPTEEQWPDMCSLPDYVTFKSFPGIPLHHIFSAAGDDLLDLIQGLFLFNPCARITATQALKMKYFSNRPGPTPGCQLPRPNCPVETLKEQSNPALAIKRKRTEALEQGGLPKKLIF", "settings": "CDK7/cyclin H/MNAT1"}, "[19]": {"target": "various kinases (Homo sapiens, UniProt O75747)", "settings": "PIK3C2G (PI3K-C2 gamma)"}, "[20]": {"target": "various kinases (Homo sapiens, UniProt P42356)", "settings": "PI4KA (PI4K alpha)"}, "[21]": {"target": "various kinases (Homo sapiens, UniProt P42336)", "sequence (P42336 whole entry)": "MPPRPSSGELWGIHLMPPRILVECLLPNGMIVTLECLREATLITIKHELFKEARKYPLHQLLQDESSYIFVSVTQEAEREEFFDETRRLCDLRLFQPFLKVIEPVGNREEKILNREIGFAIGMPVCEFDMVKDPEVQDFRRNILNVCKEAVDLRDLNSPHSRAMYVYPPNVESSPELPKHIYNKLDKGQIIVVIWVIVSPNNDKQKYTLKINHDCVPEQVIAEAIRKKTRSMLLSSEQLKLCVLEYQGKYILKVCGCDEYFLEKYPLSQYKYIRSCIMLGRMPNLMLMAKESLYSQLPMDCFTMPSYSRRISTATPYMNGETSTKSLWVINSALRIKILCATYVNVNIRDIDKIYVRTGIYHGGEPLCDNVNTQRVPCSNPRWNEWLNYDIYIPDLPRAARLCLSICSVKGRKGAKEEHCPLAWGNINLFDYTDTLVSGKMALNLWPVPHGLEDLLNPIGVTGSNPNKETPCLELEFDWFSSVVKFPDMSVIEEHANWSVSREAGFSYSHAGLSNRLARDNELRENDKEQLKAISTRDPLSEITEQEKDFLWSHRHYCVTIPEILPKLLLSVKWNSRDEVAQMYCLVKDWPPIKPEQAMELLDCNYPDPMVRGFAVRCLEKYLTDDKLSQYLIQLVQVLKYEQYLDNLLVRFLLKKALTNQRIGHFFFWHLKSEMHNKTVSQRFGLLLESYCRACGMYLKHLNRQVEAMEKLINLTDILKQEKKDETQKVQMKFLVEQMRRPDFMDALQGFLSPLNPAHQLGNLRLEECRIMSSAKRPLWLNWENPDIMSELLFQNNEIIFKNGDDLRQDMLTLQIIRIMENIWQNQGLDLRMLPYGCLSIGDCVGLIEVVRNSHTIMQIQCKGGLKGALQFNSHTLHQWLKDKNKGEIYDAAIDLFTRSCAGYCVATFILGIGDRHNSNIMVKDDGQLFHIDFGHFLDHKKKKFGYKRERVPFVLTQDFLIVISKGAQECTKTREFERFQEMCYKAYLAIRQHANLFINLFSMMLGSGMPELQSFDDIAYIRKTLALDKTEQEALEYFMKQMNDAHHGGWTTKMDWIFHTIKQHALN"}, "[22]": {"target": "various kinases (Homo sapiens, UniProt O14986)", "sequence (O14986 whole entry)": "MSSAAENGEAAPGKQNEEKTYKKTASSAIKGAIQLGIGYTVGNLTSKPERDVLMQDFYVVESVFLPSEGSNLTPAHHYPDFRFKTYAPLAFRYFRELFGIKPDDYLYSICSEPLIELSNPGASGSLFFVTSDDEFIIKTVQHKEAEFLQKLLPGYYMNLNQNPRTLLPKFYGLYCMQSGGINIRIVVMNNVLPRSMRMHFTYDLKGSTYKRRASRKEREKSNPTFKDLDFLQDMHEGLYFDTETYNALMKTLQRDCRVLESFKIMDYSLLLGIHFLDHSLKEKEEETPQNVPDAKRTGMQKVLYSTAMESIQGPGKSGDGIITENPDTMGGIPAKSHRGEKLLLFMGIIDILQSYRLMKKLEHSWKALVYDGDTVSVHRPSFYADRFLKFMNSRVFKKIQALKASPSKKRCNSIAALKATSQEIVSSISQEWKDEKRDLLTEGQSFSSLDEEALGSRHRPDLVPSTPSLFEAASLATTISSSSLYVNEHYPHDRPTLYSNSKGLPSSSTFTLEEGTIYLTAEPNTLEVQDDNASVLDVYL", "settings": "kinase PIP5K1B; Adapta"}, "[23]": {"target": "various kinases (Homo sapiens, UniProt O00443)", "settings": "PIK3C2A (PI3K-C2 alpha)"}},
  "note": "Values joined by “and” are separate entries in the source; they are usually repeats but may differ in a detail not shown here. Identical values can stand only once.",
  "data": [
    {"smiles": "COc1ccc2c(c1)[C@]1(C[C@H]1c1ccc3c(/C=C/c4ccc(CN5C[C@@H](C)O[C@@H](C)C5)cc4)n[nH]c3c1)C(=O)N2", "note": "[CFI-400945]", "values": [
      {"measurement": "% Inhibition Average", "setting": "[1]", "value": -20, "unit": "%"},
      {"measurement": "% Inhibition Duplicate #1", "setting": "[1]", "value": -15, "unit": "%"},
      {"measurement": "% Inhibition Duplicate #2", "setting": "[1]", "value": -24, "unit": "%"},
      {"measurement": "% Inhibition", "setting": "[2]", "value": "-1% and 2%"},
      {"measurement": "% Inhibition", "setting": "[3]", "value": "66% and 65%"},
      {"measurement": "IC50", "setting": "[3]", "value": 272, "unit": "nM"},
      {"measurement": "% Inhibition Average", "setting": "[4]", "value": -12, "unit": "%"},
      {"measurement": "% Inhibition Duplicate #1", "setting": "[4]", "value": -11, "unit": "%"},
      {"measurement": "% Inhibition Duplicate #2", "setting": "[4]", "value": -14, "unit": "%"},
      {"measurement": "% Inhibition", "setting": "[5]", "value": "35% and 42%"},
      {"measurement": "% Inhibition", "setting": "[6]; CDK4/cyclin D1", "value": "10% and 9%"},
      {"measurement": "% Inhibition", "setting": "[6]; CDK4/cyclin D3", "value": "5% and 8%"},
      {"measurement": "% Inhibition", "setting": "[7]; PIK3CB/PIK3R1 (p110 beta/p85 alpha)", "value": "4% and 3%"},
      {"measurement": "% Inhibition", "setting": "[7]; PIK3CB/PIK3R2 (p110 beta/p85 beta)", "value": "12% and 6%"},
      {"measurement": "% Inhibition", "setting": "[8]", "value": "2% and 0%"},
      {"measurement": "% Inhibition", "setting": "[9]", "value": "44% and 46%"},
      {"measurement": "% Inhibition", "setting": "[10]; LRRK2 G2019S", "value": "54% and 55%"},
      {"measurement": "% Inhibition", "setting": "[10]; LRRK2 G2019S FL", "value": "54% and 50%"},
      {"measurement": "% Inhibition", "setting": "[11]", "value": "-13% and -11%"},
      {"measurement": "% Inhibition", "setting": "[12]", "value": "5% and 10%"},
      {"measurement": "% Inhibition Average", "setting": "[13]", "value": 8, "unit": "%"},
      {"measurement": "% Inhibition Duplicate #1", "setting": "[13]", "value": 8, "unit": "%"},
      {"measurement": "% Inhibition Duplicate #2", "setting": "[13]", "value": 8, "unit": "%"},
      {"measurement": "% Inhibition", "setting": "[14]; LRRK2", "value": "34% and 26%"},
      {"measurement": "% Inhibition", "setting": "[14]; LRRK2 FL", "value": "43% and 42%"},
      {"measurement": "% Inhibition", "setting": "[15]", "value": "21% and 24%"},
      {"measurement": "% Inhibition", "setting": "[16]", "value": "3% and 11%"},
      {"measurement": "% Inhibition", "setting": "[17]", "value": "2% and -1%"},
      {"measurement": "% Inhibition", "setting": "[18]", "value": "-11% and -6%"},
      {"measurement": "% Inhibition", "setting": "[19]", "value": "-1% and -6%"},
      {"measurement": "% Inhibition", "setting": "[20]", "value": "12% and 7%"},
      {"measurement": "% Inhibition", "setting": "[21]; PIK3CA/PIK3R1 (p110 alpha/p85 alpha)", "value": "-9% and -6%"},
      {"measurement": "% Inhibition", "setting": "[21]; PIK3CA/PIK3R3 (p110 alpha/p55 gamma)", "value": "-2% and 6%"},
      {"measurement": "% Inhibition Average", "setting": "[22]", "value": -1, "unit": "%"},
      {"measurement": "% Inhibition Duplicate #1", "setting": "[22]", "value": 2, "unit": "%"},
      {"measurement": "% Inhibition Duplicate #2", "setting": "[22]", "value": -3, "unit": "%"},
      {"measurement": "% Inhibition", "setting": "[23]", "value": "0% and 1%"}
    ]}
  ]
}
